Measurements reported in patent publication US20220064196A1, “EGFR Inhibitors, Compositions and Methods Thereof” (Betta Pharmaceuticals Co., Ltd., priority 2019, published 2022).
Like-named read-outs stand apart in the source and are kept apart here.

Experiments:
EGFR L858R/T790M/C797S = EGFR L858R/T790M/C797S (Homo sapiens, UniProt P00533, C797S/L858R/T790M); assay: Kinase assay (mobility shift), EGFR L858R/T790M/C797S; format: biochemical
EGFR Del19/T790M/C797S = EGFR Del19/T790M/C797S (Homo sapiens, UniProt P00533, T790M/C797S, form not given); assay: Kinase assay (mobility shift), EGFR Del19/T790M/C797S; format: biochemical
Procedure: (§1) Test 1 Kinase Assay for EGFR Del19/T790M/C797S and EGFR Wildtype
(§2) Enzyme reaction protocol are as follows:
(§3) 1. Preparing 1* Kinase buffer as followed.
(§4) 2. Preparing Compound Concentration Gradient: Compounds were tested at a concentration of 300 nM, diluted to 100-fold final concentration in 100% DMSO solution in 96-well plates, and compounds were diluted 3 times with Precision, 10 concentrations. Each concentration of the compound was then further diluted to a 5-fold final concentration of the intermediate dilution solution using 1* Kinase buffer.
(§5) 3.5 μL of each of the prepared intermediate dilution compounds was separately added to the compound wells of the 384-well plate, and each concentration was tested for duplicate wells; 5 μL of 5% DMSO was added to the negative control wells and the positive control wells, respectively.
(§6) 4. 2.5-fold final concentration of the kinase solution was prepared using 1*Kinase buffer.
(§7) 5. Add 10 μL of 2.5-fold final concentration of kinase solution to the compound well and positive control well; add 10 μL of 1*Kinase buffer to the negative control well.
(§8) 6. Centrifuge at 1000 rpm for 30 seconds, shake the reaction plate and incubate for 10 minutes at room temperature.
(§9) 7. A mixed solution of 2.5 times the final concentration of ATP and Kinase substrate (5-FAM-EEPLYWSFPAKKK-CONH2) was prepared using 1*Kinase buffer.
(§10) 8. 10 μL of a 2.5-fold final concentration of a mixed solution of ATP and a substrate was added to initiate the reaction.
(§11) 9. Centrifuge the 384-well plate at 1000 rpm for 30 seconds, mix by shaking, and incubate at room temperature for the corresponding time.
(§12) 10. Add 30 μL of the stop solution to stop the kinase reaction, centrifuge at 1000 rpm for 30 seconds, and mix by shaking.
(§13) 11. Read the conversion rate with Caliper EZ Reader.
(§14) Convert conversion values to inhibition values:
(§15) Percent inhibition 32 (max-conversion)/(max-min)*100.
(§16) “max” stands for the mean value of the positive control well ratio; “min” stands for the mean value of the negative control well.
(§17) Fit the data in log(inhibitor) vs. response Variable slope of GraphPad Prism 5 to obtain IC50 values.
(§18) Equation used is: Y=Bottom+(Top-Bottom)/(1+(IC50/X)^HillSlope)

EGFR WT = EGFR WT (Homo sapiens, UniProt P00533); assay: Kinase assay (mobility shift), EGFR wildtype; format: biochemical; conditions: top concentration 300 nM
Procedure: as §1, §2, §3, §4, §5, §6, §7, §8, §9, §10, §11, §12, §13, §14, §15, §16, §17, §18

Ba/F3-Del19/T790M/C797S = Ba/F3-Del19/T790M/C797S (Homo sapiens, UniProt P00533, T790M/C797S, cells depend on it, form not given); assay: Ba/F3-Del19/T790M/C797S cells proliferation assay (CellTiter Glo); format: cell-based; conditions: cell proliferation, 72 h, read-out: Ba/F3-Del19/T790M/C797S IC50
Method in brief: (§19)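 Ba/F3 cells carrying EGFR Del19/T790M/C797S or L858R/T790M/C797S seeded at 2000 cells/well and exposed 72 h at 37 °C to compound (1000 nM top, 3-fold series, 0.5% DMSO). Viability read by CellTiter-Glo luminescence; IC50 from four-parameter non-linear regression.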

Ba/F3-L858R/T790M/C797S = Ba/F3-L858R/T790M/C797S (Homo sapiens, UniProt P00533, T790M/C797S/L858R, cells depend on it); assay: Ba/F3-L858R/T790M/C797S cells proliferation assay (CellTiter Glo); format: cell-based; conditions: cell proliferation, 72 h, read-out: Ba/F3-L858R/T790M/C797S IC50
Method in brief: as §19

A431 (WT) = assay: A431 cells proliferation assay (CellTiter Glo); format: cell-based; conditions: Homo sapiens, A-431; cell proliferation, 72 h
Method in brief: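 Wild-type A431 cells seeded at 5000/well in DMEM/10% FBS were exposed 72 h at 37° C to compound at 10000 nM top, 3-fold down to 1.5 nM, in 0.5% DMSO. Viability by CellTiter-Glo luminescence; IC50 from four-parameter nonlinear regression.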

[1] = Pharmacokinetic assay, oral administration; format: in vivo; conditions: rat, male SD rats, plasma
Method in brief: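 Male SD rats (n=3), dosed by oral gavage after overnight fast (≥12 h pre- to 4 h post-dose). Orbital plasma sampled 15 min–24 h, assayed by LC-MS/MS; parameters from non-compartmental analysis.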

[2] = p.o. 10 mg/kg, formulation 5% DMSO/5% Solutol/90% normal saline
[3] = p.o. 5 mg/kg, formulation differs per row

EGFR L858R/T790M/C797S, sequence (P00533 25-1210 T790M/C797S/L858R): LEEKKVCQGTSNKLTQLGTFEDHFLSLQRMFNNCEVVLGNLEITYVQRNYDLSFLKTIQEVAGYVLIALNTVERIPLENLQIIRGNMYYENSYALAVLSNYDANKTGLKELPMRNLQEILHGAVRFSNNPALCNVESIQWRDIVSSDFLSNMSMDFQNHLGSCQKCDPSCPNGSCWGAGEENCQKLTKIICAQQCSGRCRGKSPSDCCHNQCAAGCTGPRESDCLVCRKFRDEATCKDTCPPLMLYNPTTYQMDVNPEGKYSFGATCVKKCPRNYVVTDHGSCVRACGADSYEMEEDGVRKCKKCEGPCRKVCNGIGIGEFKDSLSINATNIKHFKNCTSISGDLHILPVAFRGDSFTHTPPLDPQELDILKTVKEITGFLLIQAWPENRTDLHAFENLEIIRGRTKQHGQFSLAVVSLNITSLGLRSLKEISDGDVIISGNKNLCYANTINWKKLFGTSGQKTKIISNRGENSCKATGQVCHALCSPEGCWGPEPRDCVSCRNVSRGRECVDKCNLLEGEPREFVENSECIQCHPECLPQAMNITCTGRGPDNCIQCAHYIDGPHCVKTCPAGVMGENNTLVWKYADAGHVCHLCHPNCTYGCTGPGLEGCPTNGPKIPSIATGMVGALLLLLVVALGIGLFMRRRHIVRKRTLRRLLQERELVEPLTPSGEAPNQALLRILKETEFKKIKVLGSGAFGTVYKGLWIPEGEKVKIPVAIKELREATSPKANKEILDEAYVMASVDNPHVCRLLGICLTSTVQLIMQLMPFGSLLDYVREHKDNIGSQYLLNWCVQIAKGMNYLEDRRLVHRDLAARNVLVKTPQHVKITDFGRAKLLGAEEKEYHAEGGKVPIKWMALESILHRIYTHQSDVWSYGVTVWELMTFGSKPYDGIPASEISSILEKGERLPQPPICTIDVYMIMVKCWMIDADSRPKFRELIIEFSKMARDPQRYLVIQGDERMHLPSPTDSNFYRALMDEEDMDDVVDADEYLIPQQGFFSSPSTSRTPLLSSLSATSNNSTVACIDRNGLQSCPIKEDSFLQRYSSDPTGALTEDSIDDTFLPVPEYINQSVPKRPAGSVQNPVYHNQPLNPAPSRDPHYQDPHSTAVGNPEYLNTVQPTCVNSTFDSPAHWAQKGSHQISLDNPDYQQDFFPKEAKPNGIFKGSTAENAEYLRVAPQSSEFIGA
Ba/F3-Del19/T790M/C797S, sequence (P00533 with tags, fused parts or gaps DEL746-750/T790M/C797S, form open): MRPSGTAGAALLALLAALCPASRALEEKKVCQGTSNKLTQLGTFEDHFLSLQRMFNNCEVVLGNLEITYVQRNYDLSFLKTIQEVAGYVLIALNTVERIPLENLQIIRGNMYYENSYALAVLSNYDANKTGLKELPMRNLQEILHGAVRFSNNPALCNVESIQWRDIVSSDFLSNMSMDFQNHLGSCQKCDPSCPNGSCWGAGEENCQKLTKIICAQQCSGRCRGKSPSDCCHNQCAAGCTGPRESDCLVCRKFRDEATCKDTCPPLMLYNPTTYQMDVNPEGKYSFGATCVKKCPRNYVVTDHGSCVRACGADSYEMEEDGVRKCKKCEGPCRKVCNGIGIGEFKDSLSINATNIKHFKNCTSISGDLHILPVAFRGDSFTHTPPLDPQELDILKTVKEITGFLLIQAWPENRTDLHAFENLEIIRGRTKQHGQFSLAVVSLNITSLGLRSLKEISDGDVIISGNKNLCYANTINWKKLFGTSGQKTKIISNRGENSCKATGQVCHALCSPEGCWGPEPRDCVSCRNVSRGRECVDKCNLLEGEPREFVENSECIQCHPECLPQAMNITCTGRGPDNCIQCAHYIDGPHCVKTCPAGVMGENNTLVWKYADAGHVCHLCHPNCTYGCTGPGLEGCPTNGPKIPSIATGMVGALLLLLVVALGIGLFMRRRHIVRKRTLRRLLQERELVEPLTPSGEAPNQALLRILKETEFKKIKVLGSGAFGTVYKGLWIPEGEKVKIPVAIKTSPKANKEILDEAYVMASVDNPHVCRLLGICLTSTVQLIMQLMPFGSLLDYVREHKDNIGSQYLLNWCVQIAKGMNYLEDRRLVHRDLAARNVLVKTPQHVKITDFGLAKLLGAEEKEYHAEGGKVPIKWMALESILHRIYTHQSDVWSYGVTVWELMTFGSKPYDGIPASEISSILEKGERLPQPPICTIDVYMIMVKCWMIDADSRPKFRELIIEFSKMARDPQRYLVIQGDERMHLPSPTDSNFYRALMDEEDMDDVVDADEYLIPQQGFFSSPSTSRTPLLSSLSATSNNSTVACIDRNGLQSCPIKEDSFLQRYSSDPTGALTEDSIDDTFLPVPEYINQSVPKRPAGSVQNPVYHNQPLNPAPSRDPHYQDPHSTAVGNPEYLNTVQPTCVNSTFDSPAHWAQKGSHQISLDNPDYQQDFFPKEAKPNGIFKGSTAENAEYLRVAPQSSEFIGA
EGFR Del19/T790M/C797S, sequence (P00533 with tags, fused parts or gaps DEL746-750/T790M/C797S, form open): as above
EGFR WT, sequence (P00533 25-1210): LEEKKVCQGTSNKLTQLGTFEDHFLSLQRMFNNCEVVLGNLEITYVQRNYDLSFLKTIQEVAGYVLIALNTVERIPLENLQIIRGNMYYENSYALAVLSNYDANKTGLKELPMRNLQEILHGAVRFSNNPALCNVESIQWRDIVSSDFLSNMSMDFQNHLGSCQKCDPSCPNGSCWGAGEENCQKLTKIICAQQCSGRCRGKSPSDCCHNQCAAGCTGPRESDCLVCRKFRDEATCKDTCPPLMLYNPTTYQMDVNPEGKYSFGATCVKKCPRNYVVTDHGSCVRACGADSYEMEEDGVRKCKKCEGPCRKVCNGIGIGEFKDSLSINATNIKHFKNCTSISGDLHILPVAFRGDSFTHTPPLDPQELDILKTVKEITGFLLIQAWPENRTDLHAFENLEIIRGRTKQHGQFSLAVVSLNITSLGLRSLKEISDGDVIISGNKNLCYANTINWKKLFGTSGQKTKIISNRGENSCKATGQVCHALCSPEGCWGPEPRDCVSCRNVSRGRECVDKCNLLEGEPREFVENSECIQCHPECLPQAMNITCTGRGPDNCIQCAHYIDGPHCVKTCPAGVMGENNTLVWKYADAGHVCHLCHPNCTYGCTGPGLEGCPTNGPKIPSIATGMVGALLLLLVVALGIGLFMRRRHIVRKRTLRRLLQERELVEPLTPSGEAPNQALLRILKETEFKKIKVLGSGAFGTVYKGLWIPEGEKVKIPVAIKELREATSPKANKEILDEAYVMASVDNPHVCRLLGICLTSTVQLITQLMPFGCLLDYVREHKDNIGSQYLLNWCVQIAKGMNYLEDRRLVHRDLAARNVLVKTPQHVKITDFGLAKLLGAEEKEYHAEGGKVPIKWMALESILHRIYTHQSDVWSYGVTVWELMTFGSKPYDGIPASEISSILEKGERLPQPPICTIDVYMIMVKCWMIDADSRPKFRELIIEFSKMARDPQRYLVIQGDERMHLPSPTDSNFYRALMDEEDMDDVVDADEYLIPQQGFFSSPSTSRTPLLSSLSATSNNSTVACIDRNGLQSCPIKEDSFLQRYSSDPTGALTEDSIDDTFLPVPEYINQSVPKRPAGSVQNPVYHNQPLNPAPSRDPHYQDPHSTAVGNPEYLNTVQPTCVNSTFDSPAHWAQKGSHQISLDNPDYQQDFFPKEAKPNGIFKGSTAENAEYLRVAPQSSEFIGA

SMILES	IC50 (EGFR L858R/T790M/C797S; class symbols) [nM]	IC50 (EGFR Del19/T790M/C797S) [nM]	IC50 (EGFR WT) [nM]	GI50 (Ba/F3-Del19/T790M/C797S; numeric values) [nM]	GI50 (Ba/F3-L858R/T790M/C797S; numeric values) [nM]	IC50 (A431 (WT)) [nM]	AUC(0-t) [1, 2] [ng·h/mL]	Cmax [1, 2] [ng/mL]	Tmax [1, 2] [h]	half-life [1, 2] [h]	IC50 (EGFR L858R/T790M/C797S; numeric values) [nM]	GI50 (Ba/F3-Del19/T790M/C797S; class symbols) [nM]	GI50 (Ba/F3-L858R/T790M/C797S; class symbols) [nM]	AUC(0-t) [1, 3] [ng·h/mL]	Cmax [1, 3] [ng/mL]	Tmax [1, 3] [h]	half-life [1, 3] [h]
Cc1cc(Nc2ncc(Cl)c(Nc3ccccc3P(C)(C)=O)n2)ccc1N1CC2(CCC(N(C)C)CC2)C1 [Example 1, (2-((5-chloro-2-((4-(7-(dimethylamino)-2-azaspiro[3.5]nonan-2-yl)-3-methylphenyl)amino)pyrimidin-4-yl)amino)phenyl)dimethylphosphine oxide]	≤ 2	0.9	43	5.8	6	48.8	1540	141	1.67	6.53							
Cc1cc(Nc2ncc(Cl)c(Nc3ccccc3P(C)(C)=O)n2)ccc1N1CC2(CCC(NC3CC3)CC2)C1 [Example 4, (2-((5-chloro-2-((4-(7-(cyclopropylamino)-2-azaspiro[3.5]nonan-2-yl)-3-methylphenyl)amino)pyrimidin-4-yl)amino)phenyl)dimethylphosphine oxide]		1	21			26.9					1.5	≤ 10	10 to 50	1020	71.3	6	6.27
Cc1cc(Nc2ncc(Cl)c(Nc3ccccc3P(C)(C)=O)n2)ccc1N1CCC2(CC1)CC(N)C2 [Example 14, (2-((2-((4-(2-amino-7-azaspiro[3.5]nonan-7-yl)-3-methylphenyl)amino)-5-chloropyrimidin-4-yl)amino)phenyl)dimethylphosphine oxide]		0.31	27	13.2	15.1	17.5					1.2						
